Measured values reported in patent US11390604B2 (Hoffmann-La Roche Inc., priority 2019, dated 2022).
Counter-ions that a name gives are not always drawn. Like-named read-outs stand apart in the source and are kept apart here.

Test system: Acinetobacter baumannii ATCC 17961
Test: Antimicrobial susceptibility testing: 90% growth inhibitory concentration (IC90) determination
Assay type: cell-based
Procedure, shortened: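 Growth was followed kinetically by OD600 at 20-min intervals for 16 h at 35±2 °C, with ~5×10^5 CFU/ml in Iso-Sensitest broth. Compounds were tested as twofold dilutions (e.g. 50–0.097 μM final). The concentration giving 90% inhibition of log-phase growth was reported.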

[1] = ATCC17961, Acinetobacter baumannii ATCC 17961, Iso-Sensitest broth, read-out: ATCC 17961 IC90
[2] = Acinetobacter baumannii, ATCC17961, read-out: ATCC 17961 IC90, Acinetobacter baumannii ATCC 17961, Iso-Sensitest broth

Compound | IC90 [1] [nM] | further results
Cn1c(-c2cn(C3CC3(F)F)nc2C(F)(F)F)cnc1C(=O)Nc1ccc(C(=O)NC2(C)CCN(C(=O)N[C@H]3C[C@@H](N)C3)CC2)c(Cl)c1 (mixture of isomers) [Example 333, rac-N-((1s,3s)-3-aminocyclobutyl)-4-(2-chloro-4-(5-(1-(2,2-difluorocyclopropyl)-3-(trifluoromethyl)-1H-pyrazol-4-yl)-1-methyl-1H-imidazole-2-carboxamido)benzamido)-4-methylpiperidine-1-carboxamide formate] | 422 | 
Cn1c(-c2cn(C3CC3)nc2C(F)(F)F)cnc1C(=O)Nc1ccc(C(=O)N2CCC(CCN)CC2)c(Cl)c1 [Example 191, N-(4-(4-(2-aminoethyl)piperidine-1-carbonyl)-3-chlorophenyl)-5-(1-cyclopropyl-3-(trifluoromethyl)-1H-pyrazol-4-yl)-1-methyl-1H-imidazole-2-carboxamide formate] | 176 | 
Cn1c(-c2cn(C3CC3(F)F)nc2C(F)(F)F)cnc1C(=O)Nc1ccc(C(=O)NCC2C3CN(C(=O)N[C@H]4CNC[C@@H]4O)CC23)c(Cl)c1 (mixture of isomers) [Example 365, rac-6-((2-chloro-4-(5-(1-(2,2-difluorocyclopropyl)-3-(trifluoromethyl)-1H-pyrazol-4-yl)-1-methyl-1H-imidazole-2-carboxamido)benzamido)methyl)-N-((3S,4S)-4-hydroxypyrrolidin-3-yl)-3-azabicyclo[3.1.0]hexane-3-carboxamide formate] | 483 | 
Cn1c(-c2cn(Cc3cccnc3)nc2C(F)(F)F)cnc1C(=O)Nc1ccc(C(=O)N2CCN(C(=O)C3(O)CCCNC3)CC2)c(Cl)c1 (stereo not shown) [Example 75, N-[3-chloro-4-[4-(3-hydroxypiperidine-3-carbonyl)piperazine-1-carbonyl]phenyl]-1-methyl-5-[1-(pyridin-3-ylmethyl)-3-(trifluoromethyl)pyrazol-4-yl]imidazole-2-carboxamide;hydrochloride] | 542 | 
C#CCn1cc(-c2cnc(C(=O)Nc3ccc(C(=O)N(C)C)c(Cl)c3)n2C)c(C(F)(F)F)n1 [Example 42, N-(3-chloro-4-(dimethylcarbamoyl)phenyl)-1-methyl-5-(1-(prop-2-yn-1-yl)-3-(trifluoromethyl)-1H-pyrazol-4-yl)-1H-imidazole-2-carboxamide] | 241 | 
COC1CN(C(=O)N[C@H]2CNC[C@@H]2O)CC1NC(=O)c1ccc(NC(=O)c2ncc(-c3cn(C4CC4(F)F)nc3C(F)(F)F)n2C)cc1Cl (mixture of isomers) [Example 350, rac-N-(3-chloro-4-((trans-1-(((3R,4R)-4-hydroxypyrrolidin-3-yl)carbamoyl)-4-methoxypyrrolidin-3-yl)carbamoyl)phenyl)-5-(1-(2,2-difluorocyclopropyl)-3-(trifluoromethyl)-1H-pyrazol-4-yl)-1-methyl-1H-imidazole-2-carboxamide formate] | 450 | 
Cn1c(-c2c[nH]nc2C(F)(F)F)cnc1C(=O)Nc1ccc(S(=O)(=O)N2CCN(C(=O)[C@@H]3C[C@@H](O)CN3)CC2)c(Cl)c1 [Example 59, N-(3-Chloro-4-((4-((2S,4R)-4-hydroxypyrrolidine-2-carbonyl)piperazin-1-yl)sulfonyl)phenyl)-1-methyl-5-(3-(trifluoromethyl)-1H-pyrazol-4-yl)-1H-imidazole-2-carboxamide Hydrochloride] | 823 | 
C=C(C)Cn1cc(-c2cnc(C(=O)Nc3ccc(C(=O)NCCCCCN)c(Cl)c3)n2C)c(C(F)(F)F)n1 [Example 205, N-(4-((5-aminopentyl)carbamoyl)-3-chlorophenyl)-1-methyl-5-(1-(2-methylallyl)-3-(trifluoromethyl)-1H-pyrazol-4-yl)-1H-imidazole-2-carboxamide hydrochloride] | 224 | 
Cn1c(-c2cn([C@H]3CC3(F)F)nc2C(F)(F)F)cnc1C(=O)Nc1ccc(C(=O)N[C@H]2[C@@H]3CN(C(=O)N[C@H]4CNC[C@@H]4O)C[C@@H]32)c(Cl)c1 [Example 183, (1S,5R)-6-[[2-chloro-4-[[5-[1-[(1S)-2,2-difluorocyclopropyl]-3-(trifluoromethyl)pyrazol-4-yl]-1-methyl-imidazole-2-carbonyl]amino]benzoyl]amino]-N-[(3S,4S)-4-hydroxypyrrolidin-3-yl]-3-azabicyclo[3.1.0]hexane-3-carboxamide; Hydrochloride] |  | IC90 [2]: 170 nM
CCc1cc(NC(=O)c2ncc(-c3cn(CC#N)nc3C(F)(F)F)n2C)ccc1C(=O)N1CCN(C(=O)N2CCNC(C)C2)CC1 (stereo not shown) [Example 135, 5-[1-(cyanomethyl)-3-(trifluoromethyl)pyrazol-4-yl]-N-[3-ethyl-4-[4-(3-methylpiperazine-1-carbonyl)piperazine-1-carbonyl]phenyl]-1-methylimidazole-2-carboxamide;formic acid] | 885 | 
formic acid;rac-(1S,5R)-8-[2- chloro-4-[[5-[1-(2,2- difluorocyclopropyl)-3- (trifluoromethyl)pyrazol-4-yl]- 1-methyl-imidazole-2- carbonyl]amino]benzoyl]-N- [rac-(3S,4S)-4- hydroxypyrrolidin-3-yl]-3,8- diazabicyclo[3.2.1]octane-3- carboxamide [Example 377] |  | IC90 (Acinetobacter baumannii ATCC 17961, Iso-Sensitest broth, read-out: ATCC 17961 IC90): 497 nM
C=CCn1cc(-c2cnc(C(=O)Nc3ccc(C(=O)N[C@H]4[C@@H]5CN(C(=O)N[C@@H]6CNC[C@H]6O)C[C@@H]54)c(Cl)c3)n2C)c(C(F)(F)F)n1 [Example 387, (1R,5S,6s)-6-(4-(5-(1-allyl-3-(trifluoromethyl)-1H-pyrazol-4-yl)-1-methyl-1H-imidazole-2-carboxamido)-2-chlorobenzamido)-N-((3R,4R)-4-hydroxypyrrolidin-3-yl)-3-azabicyclo[3.1.0]hexane-3-carboxamide formate] | 130 | 
Cn1c(-c2cn(C3CC3(F)F)nc2C(F)(F)F)cnc1C(=O)Nc1ccc(C(=O)NCC2CCCN(C(=O)N[C@H]3CNC[C@@H]3O)C2)c(Cl)c1 (mixture of isomers) [Example 226, formate] |  | IC90 [2]: 259 nM

Continued, in another order:

IC90 [1] [nM] | Compound | further results
327 | CC#CCn1cc(-c2cnc(C(=O)Nc3ccc(C(=O)N4CCN(C(=O)C5CCNCC5)CC4)c(Cl)c3)n2C)c(C(F)(F)F)n1 [Example 8, 5-(1-(but-2-yn-1-yl)-3-(trifluoromethyl)-1H-pyrazol-4-yl)-N-(3-chloro-4-(4-(piperidine-4-carbonyl)piperazine-1-carbonyl)phenyl)-1-methyl-1H-imidazole-2-carboxamide hydrochloride] | 
516 | CN1CCC(C(=O)N2CCN(C(=O)c3ccc(NC(=O)c4ncc(-c5c[nH]nc5C(F)(F)F)n4C)cc3Cl)CC2)CC1 [Example 14, N-[3-chloro-4-[4-(1-methylpiperidine-4-carbonyl)piperazine-1-carbonyl]phenyl]-1-methyl-5-[3-(trifluoromethyl)-1H-pyrazol-4-yl]imidazole-2-carboxamide] | 
4060 | Cn1c(-c2cn(CCC(N)=O)nc2C(F)(F)F)cnc1C(=O)Nc1ccc(C(=O)N2CCN(C(=O)C3CCNCC3)CC2)c(Cl)c1 [Example 4, 5-(1-(3-amino-3-oxopropyl)-3-(trifluoromethyl)-1H-pyrazol-4-yl)-N-(3-chloro-4-(4-(piperidine-4-carbonyl)piperazine-1-carbonyl)phenyl)-1-methyl-1H-imidazole-2-carboxamide] | 
226 | Cn1c(-c2cn(CC3CC3)nc2C(F)(F)F)cnc1C(=O)Nc1ccc(C(=O)N2CCN(C(=O)C3CNC3)CC2)c(Cl)c1 [Example 208, N-(4-(4-(azetidine-3-carbonyl)piperazine-1-carbonyl)-3-chlorophenyl)-5-(1-(cyclopropylmethyl)-3-(trifluoromethyl)-1H-pyrazol-4-yl)-1-methyl-1H-imidazole-2-carboxamide] | 
371 | Cn1c(-c2cn(CC3CCCC3)nc2C(F)(F)F)cnc1C(=O)Nc1ccc(C(=O)N2CCN(C(=O)C3CCNCC3)CC2)c(Cl)c1 [Example 304, N-(3-chloro-4-(4-(piperidine-4-carbonyl)piperazine-1-carbonyl)phenyl)-5-(1-(cyclopentylmethyl)-3-(trifluoromethyl)-1H-pyrazol-4-yl)-1-methyl-1H-imidazole-2-carboxamide hydrochloride] | 
473 | Cn1c(-c2cn(CCOC(F)F)nc2C(F)(F)F)cnc1C(=O)Nc1ccc(C(=O)N2CCN(C(=O)C3CCNCC3)CC2)c(Cl)c1 [Example 109, N-[3-chloro-4-[4-(piperidine-4-carbonyl)piperazine-1-carbonyl]phenyl]-5-[1-[2-(difluoromethoxy)ethyl]-3-(trifluoromethyl)pyrazol-4-yl]-1-methylimidazole-2-carboxamide;hydrochloride] | 
267 | Cn1c(-c2cn(C3CC3)nc2C(F)(F)F)cnc1C(=O)Nc1ccc(C(=O)N2CCN(C(=O)[C@H]3CC[C@H](N)CC3)CC2)c(Cl)c1 [Example 231, N-[4-[4-(4-aminocyclohexanecarbonyl)piper-azine-1-carbonyl]-3-chlorophenyl]-5-[1-cyclopropyl-3-(trifluoromethyl)pyrazol-4-yl]-1-methylimidazole-2-carboxamide;hydrochloride] | 
227 | C#CCn1cc(-c2cnc(C(=O)Nc3ccc(C(=O)N4CCN(C(=O)N5CC(C)(N)C5)CC4)c(Cl)c3)n2C)c(C(F)(F)F)n1 [Example 81, N-[4-[4-(3-amino-3-methylazetidine-1-carbonyl)piperazine-1-carbonyl]-3-chlorophenyl]-1-methyl-5-[1-prop-2-ynyl-3-(trifluoromethyl)pyrazol-4-yl]imidazole-2-carboxamide] | 
216 | C[C@H](N)C(=O)N1CCN(C(=O)c2ccc(NC(=O)c3ncc(-c4cn(CC#N)nc4C(F)(F)F)n3C)cc2Cl)CC1 [Example 71, N-[4-[4-[(2S)-2-aminopropanoyl]piperazine-1-carbonyl]-3-chlorophenyl]-5-[1-(cyanomethyl)-3-(trifluoromethyl)pyrazol-4-yl]-1-methylimidazole-2-carboxamide;2,2,2-trifluoroacetic acid] | 
